# According to ChEMBL document CHEMBL1201862, “PubChem BioAssay data set” (2004):
#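 How tested: cells in 96-well plates exposed to compound for 48 hours at five concentrations. GI50: concentration for 50% inhibition of growth.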 The source made the active and inactive calls. No stated cut-off is given here; in the data, active = GI50 up to about 1.1 µM and inactive = higher.
# What was measured:
# Assay in all cases: NCI-60 cell line screen, 48 h
# HOP-62 = tested on: HOP-62
# A549 = tested on: A549
# SK-MEL-2 = tested on: SK-MEL-2
# DU-145 = tested on: DU-145
# OVCAR-5 = tested on: OVCAR-5
# SN12C = tested on: SN12C
# OVCAR-3 = tested on: OVCAR-3
# T47D = tested on: T47D
# NCI-H522 = tested on: NCI-H522
# HCT-116 = tested on: HCT-116
# MCF7 = tested on: MCF7
# UACC-257 = tested on: UACC-257
# EKVX = tested on: EKVX
# SR = tested on: SR
# CCRF-CEM = tested on: CCRF-CEM
# OVCAR-8 = tested on: OVCAR-8
# HCT-15 = tested on: HCT-15
# IGROV-1 = tested on: IGROV-1
# MDA-MB-231 = tested on: MDA-MB-231
# SF-268 = tested on: SF-268
SMILES,GI50 (HOP-62),GI50 (A549),GI50 (SK-MEL-2),GI50 (DU-145),GI50 (OVCAR-5),GI50 (SN12C),GI50 (OVCAR-3),GI50 (T47D),GI50 (NCI-H522),GI50 (HCT-116),GI50 (MCF7),GI50 (UACC-257),GI50 (EKVX),GI50 (SR),GI50 (CCRF-CEM),GI50 (OVCAR-8),GI50 (HCT-15) [µM],GI50 (IGROV-1),GI50 (MDA-MB-231),GI50 (SF-268)
CN(C)/C=N/S(=O)(=O)c1nn2c(C=O)c(-c3ccc([N+](=O)[O-])cc3)nc2s1,26.1 µM (inactive),22.8 µM (inactive),10.4 µM (inactive),6.67 µM (inactive),23.4 µM (inactive),5.42 µM (inactive),4.11 µM (inactive),5.68 µM (inactive),1.27 µM (inactive),1.67 µM (inactive),4.68 µM (inactive),9.44 µM (inactive),16.6 µM (inactive),2.06 µM (inactive),0.834 µM (active),3.67 µM (inactive),2.94,3.15 µM (inactive),12.4 µM (inactive),13.6 µM (inactive)
N#Cc1sc2c(c1O)c(=O)n(-c1ccccc1)c(=S)n2-c1ccccc1,,> 100 µM (inactive),> 100 µM (inactive),> 100 µM (inactive),> 100 µM (inactive),> 100 µM (inactive),> 100 µM (inactive),> 100 µM (inactive),> 100 µM (inactive),,> 100 µM (inactive),> 100 µM (inactive),,> 100 µM (inactive),> 10 µM (inactive),> 100 µM (inactive),> 100,> 100 µM (inactive),> 100 µM (inactive),> 100 µM (inactive)
COc1cc(C(c2cc(OC)c(OC)c(OC)c2)N2C(=O)CCC2C(=O)O)cc(OC)c1OC (stereo unspecified),> 100 µM (inactive),> 100 µM (inactive),> 100 µM (inactive),> 100 µM (inactive),> 100 µM (inactive),> 100 µM (inactive),> 100 µM (inactive),> 100 µM (inactive),> 100 µM (inactive),> 100 µM (inactive),> 100 µM (inactive),> 100 µM (inactive),> 100 µM (inactive),> 100 µM (inactive),> 100 µM (inactive),> 100 µM (inactive),> 100,> 100 µM (inactive),> 100 µM (inactive),> 100 µM (inactive)
COC(=O)c1ccc2c(c1)CC1(C2)Cc2ccccc2C1=O (stereo unspecified),38.5 µM (inactive),53.1 µM (inactive),27.4 µM (inactive),36.3 µM (inactive),72.3 µM (inactive),25.9 µM (inactive),29.1 µM (inactive),37.8 µM (inactive),25.3 µM (inactive),23.8 µM (inactive),22.9 µM (inactive),15.1 µM (inactive),29.5 µM (inactive),22.2 µM (inactive),19.9 µM (inactive),38.5 µM (inactive),36.2,33.3 µM (inactive),22.7 µM (inactive),35 µM (inactive)
C=CC(=O)C#Cc1cnc(OC)nc1OC,22.8 µM (inactive),59 µM (inactive),22.1 µM (inactive),37.2 µM (inactive),16.1 µM (inactive),18.7 µM (inactive),18.2 µM (inactive),21.7 µM (inactive),6.41 µM (inactive),9.59 µM (inactive),5.13 µM (inactive),6.38 µM (inactive),24.4 µM (inactive),2.49 µM (inactive),0.515 µM (active),26.7 µM (inactive),10.7,22.9 µM (inactive),19.8 µM (inactive),30.1 µM (inactive)
CCCCc1ccc(Nc2nc(S)c3ncn(COCCO)c3n2)cc1,31 µM (inactive),> 100 µM (inactive),23.4 µM (inactive),56.9 µM (inactive),86.5 µM (inactive),39.7 µM (inactive),21 µM (inactive),11.6 µM (inactive),20.9 µM (inactive),65 µM (inactive),24.2 µM (inactive),30.4 µM (inactive),60.5 µM (inactive),24 µM (inactive),25.7 µM (inactive),45.4 µM (inactive),> 100,36 µM (inactive),15.4 µM (inactive),> 10 µM (inactive)
C[C@H](CCC(=O)O)[C@H]1CC[C@H]2[C@@H]3[C@@H](O)C[C@@H]4C[C@H](O)CC[C@]4(C)[C@H]3C[C@H](O)[C@]12C,> 100 µM (inactive),> 100 µM (inactive),> 100 µM (inactive),> 100 µM (inactive),> 100 µM (inactive),> 100 µM (inactive),,> 100 µM (inactive),> 100 µM (inactive),> 100 µM (inactive),> 100 µM (inactive),> 100 µM (inactive),> 100 µM (inactive),> 100 µM (inactive),> 100 µM (inactive),> 100 µM (inactive),> 100,> 100 µM (inactive),> 100 µM (inactive),> 100 µM (inactive)
C[Si](C)(C)C1=C2C(=O)c3ccccc3C(=O)C2=C([Si](C)(C)C)[C@@H]2CCCC[C@H]12,,> 100 µM (inactive),> 100 µM (inactive),> 100 µM (inactive),> 100 µM (inactive),> 100 µM (inactive),> 100 µM (inactive),> 100 µM (inactive),> 100 µM (inactive),> 100 µM (inactive),> 100 µM (inactive),> 100 µM (inactive),> 100 µM (inactive),> 100 µM (inactive),> 100 µM (inactive),,> 100,> 100 µM (inactive),> 100 µM (inactive),
COc1ccc(/C=C\c2cc(OC)c(OC)c(OC)c2)c(O)c1O [COMBRETASTATIN A-1],0.0893 µM (active),0.178 µM (active),0.0451 µM (active),0.0127 µM (active),4.37 µM (inactive),0.256 µM (active),,> 49.9 µM (inactive),0.0942 µM (active),,< 0.01 µM (active),0.0582 µM (active),1.99 µM (inactive),2.07 µM (inactive),0.0682 µM (active),0.0881 µM (active),,1.57 µM (inactive),0.0148 µM (active),0.0665 µM (active)
COc1cc(CNC(=O)CCCCCCCC/C=C/Br)ccc1O,> 10 µM (inactive),> 10 µM (inactive),> 10 µM (inactive),> 10 µM (inactive),,> 10 µM (inactive),> 10 µM (inactive),> 10 µM (inactive),> 10 µM (inactive),> 10 µM (inactive),> 10 µM (inactive),> 10 µM (inactive),> 10 µM (inactive),> 10 µM (inactive),> 10 µM (inactive),> 10 µM (inactive),> 10,> 10 µM (inactive),> 10 µM (inactive),> 10 µM (inactive)
CC1=C(C(=O)N[C@@H](CC(C)C)C(=O)O)N2C(=O)[C@@H](NC(=O)[C@@H](N)Cc3ccccc3)[C@H]2SC1,,> 100 µM (inactive),> 100 µM (inactive),> 100 µM (inactive),> 100 µM (inactive),> 100 µM (inactive),> 100 µM (inactive),> 100 µM (inactive),> 100 µM (inactive),,> 100 µM (inactive),> 100 µM (inactive),> 100 µM (inactive),> 100 µM (inactive),> 100 µM (inactive),> 100 µM (inactive),> 100,> 100 µM (inactive),> 100 µM (inactive),> 100 µM (inactive)
CCOC(=O)c1c2cccccc-2nc1Nc1cccc2c(C)ccnc12,> 10 µM (inactive),> 10 µM (inactive),> 10 µM (inactive),> 10 µM (inactive),> 10 µM (inactive),> 10 µM (inactive),4.81 µM (inactive),2.66 µM (inactive),,5.12 µM (inactive),8.24 µM (inactive),9.2 µM (inactive),> 10 µM (inactive),9.95 µM (inactive),4.88 µM (inactive),> 10 µM (inactive),6.31,4.82 µM (inactive),> 10 µM (inactive),> 10 µM (inactive)
Cc1cn(C2CC(n3cc(Cn4cc(I)c(=O)[nH]c4=O)nn3)C(CO)O2)c(=O)[nH]c1=O (stereo unspecified),> 100 µM (inactive),> 100 µM (inactive),> 100 µM (inactive),> 100 µM (inactive),> 100 µM (inactive),> 100 µM (inactive),> 100 µM (inactive),> 100 µM (inactive),,> 100 µM (inactive),> 100 µM (inactive),> 100 µM (inactive),,< 0.01 µM (active),> 100 µM (inactive),> 100 µM (inactive),> 100,,> 100 µM (inactive),> 100 µM (inactive)
CNc1ccc([N+](=O)[O-])cc1C(=O)N1CCC[C@H]1CO,> 100 µM (inactive),> 100 µM (inactive),> 100 µM (inactive),> 100 µM (inactive),> 100 µM (inactive),> 100 µM (inactive),,> 100 µM (inactive),> 100 µM (inactive),> 100 µM (inactive),> 100 µM (inactive),> 100 µM (inactive),> 100 µM (inactive),> 100 µM (inactive),> 100 µM (inactive),> 100 µM (inactive),> 100,> 100 µM (inactive),> 100 µM (inactive),> 100 µM (inactive)
c1ccc(COC2C3COC(O3)C(OCc3ccccc3)C2OCc2ccccc2)cc1 (stereo unspecified),71.3 µM (inactive),,54.3 µM (inactive),78.5 µM (inactive),69.5 µM (inactive),13.6 µM (inactive),57.8 µM (inactive),22.9 µM (inactive),15.1 µM (inactive),33.9 µM (inactive),39.1 µM (inactive),71.1 µM (inactive),38.7 µM (inactive),4.84 µM (inactive),11.2 µM (inactive),60.7 µM (inactive),34,79.1 µM (inactive),> 100 µM (inactive),> 100 µM (inactive)
